The term EC50 denotes the midpoint of the concentration-response curve.

Like-named read-outs stand apart in the source and are kept apart here. Marks after values point to notes of the source that are not given here. Bounds are passed on as bounds.

For the assay, the target named is T1, F508delCFTR (Homo sapiens, UniProt P13569, DEL508-508).
T1 construct: expressed in transfected cells; host or cells: CFBE41o- human lung derived epithelial cells (CFBE41o-F508delCFTR-HRP), doxycycline-inducible
T1 sequence (P13569 with tags, fused parts or gaps DEL508-508): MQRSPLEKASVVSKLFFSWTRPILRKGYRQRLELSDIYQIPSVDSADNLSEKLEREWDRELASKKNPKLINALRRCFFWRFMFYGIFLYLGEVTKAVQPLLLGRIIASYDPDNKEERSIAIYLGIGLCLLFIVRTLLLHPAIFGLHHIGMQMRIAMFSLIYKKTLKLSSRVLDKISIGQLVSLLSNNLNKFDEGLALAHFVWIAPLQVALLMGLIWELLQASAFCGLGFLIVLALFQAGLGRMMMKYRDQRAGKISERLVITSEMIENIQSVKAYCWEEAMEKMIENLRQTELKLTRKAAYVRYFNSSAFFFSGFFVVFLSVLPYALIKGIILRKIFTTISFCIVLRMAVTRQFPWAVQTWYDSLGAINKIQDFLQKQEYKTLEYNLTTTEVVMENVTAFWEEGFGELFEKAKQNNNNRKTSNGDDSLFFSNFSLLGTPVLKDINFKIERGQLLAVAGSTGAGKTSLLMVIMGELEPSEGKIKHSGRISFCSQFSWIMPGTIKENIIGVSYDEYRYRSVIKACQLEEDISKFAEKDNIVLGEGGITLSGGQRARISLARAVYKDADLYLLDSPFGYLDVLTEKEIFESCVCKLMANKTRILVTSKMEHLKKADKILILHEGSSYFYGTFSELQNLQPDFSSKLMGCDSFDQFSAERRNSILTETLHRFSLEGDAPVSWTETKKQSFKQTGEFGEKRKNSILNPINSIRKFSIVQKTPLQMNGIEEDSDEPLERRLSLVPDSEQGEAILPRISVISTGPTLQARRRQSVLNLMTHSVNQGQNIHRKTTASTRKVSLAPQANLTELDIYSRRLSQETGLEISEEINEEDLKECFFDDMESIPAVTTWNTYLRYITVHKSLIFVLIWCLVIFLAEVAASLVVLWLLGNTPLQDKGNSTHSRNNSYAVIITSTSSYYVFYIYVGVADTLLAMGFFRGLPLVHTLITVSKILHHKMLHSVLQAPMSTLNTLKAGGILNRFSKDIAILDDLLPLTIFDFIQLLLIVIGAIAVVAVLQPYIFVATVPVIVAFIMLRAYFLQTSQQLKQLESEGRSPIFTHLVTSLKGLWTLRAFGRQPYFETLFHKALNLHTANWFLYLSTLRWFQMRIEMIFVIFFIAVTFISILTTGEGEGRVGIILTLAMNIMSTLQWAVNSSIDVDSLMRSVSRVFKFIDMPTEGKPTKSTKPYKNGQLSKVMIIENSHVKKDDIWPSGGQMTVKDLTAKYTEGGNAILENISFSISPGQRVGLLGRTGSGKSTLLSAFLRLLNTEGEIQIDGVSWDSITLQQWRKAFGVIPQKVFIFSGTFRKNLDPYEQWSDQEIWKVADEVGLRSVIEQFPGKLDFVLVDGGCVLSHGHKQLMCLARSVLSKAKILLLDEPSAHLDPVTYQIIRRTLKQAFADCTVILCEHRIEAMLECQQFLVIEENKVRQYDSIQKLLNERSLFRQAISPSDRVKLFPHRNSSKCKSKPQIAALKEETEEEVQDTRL
The experiment in a line: Cell Surface Expression-Horse Radish Peroxidase (CSE-HRP) Assay.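 On EC50 (with co-corrector): co-corrector chromenyl benzoic acid corrector at 2 or 3 µM.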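 On Maximum % activity (without co-corrector): % of on-plate positive control chromenyl benzoic acid corrector at 2 or 3 µM.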 The format is cell-based. The conditions noted are these: for Emax: read-out: Maximum % activity (without co-corrector). Summed up:
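Corrector compounds were given as 8-point 3-fold series from 20 or 30 μM, with or without a 2 μM co-corrector, for 18-24 h at 33 °C. Surface HRP was read by luminol luminescence as % of positive control; variable-Hill-slope sigmoidal fitting gave EC50 from triplicate plates.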

[1] abbreviates: test compound alone, without co-corrector, read-out: EC50 (without co-corrector).
[2] abbreviates: with co-corrector, maximum at any tested concentration.
The mark [3] stands for this setting: with co-corrector, read-out: EC50 (with co-corrector).
Setting [4] is: without co-corrector, maximum at any tested concentration.
The mark [5] stands for this setting: test compound with co-corrector, maximum at any tested concentration.
Setting [6] is: test compound with co-corrector, read-out: EC50 (with co-corrector).
Where [7] appears, read: test compound without co-corrector, maximum at any tested concentration.
[8] abbreviates: test compound without co-corrector, read-out: EC50 (without co-corrector).

Turning to `O=C(NS(=O)(=O)c1cccc2ccccc12)C1(c2ccc3c(c2)OC(F)(F)O3)CC1` [Example III-91, 1-(2,2-difluoro-2H-1,3-benzodioxol-5-yl)-N-(naphthalene-1-sulfonyl)cyclopropane-1-carboxamide], the 50% effective concentration (EC50) is, setting by setting: under setting [1], greater than 10 µM; under setting [3], 3 to 10 µM. For the same compound, the “Maximum % activity (with co-corrector)” value under setting [2] was “+++ (≥350)”. Further, the Emax under setting [4] is greater than 150%.

Regarding `Cc1cnc(OCC(C)C)c(C2(C(=O)NS(=O)(=O)c3cccc4nc(C)ccc34)CC2)c1` [Example GI-43, 1-[5-methyl-2-(2-methylpropoxy)pyridin-3-yl]-N-(2-methylquinoline-5-sulfonyl)cyclopropane-1-carboxamide], under setting [5], the “Maximum % activity (with co-corrector)” value is “+++ (≥350)”. Moreover, the EC50 is less than 3 µM under setting [6] and less than 3 µM under setting [8]. Under setting [7], the Emax is greater than 150%.

As to `CC(C)Oc1ccc(C2(C(=O)NS(=O)(=O)c3cccc4ncccc34)CC2)c(N(C)C)n1` [GII-51, 1-{2-(dimethylamino)-6-[(propan-2-yl)oxy]pyridin-3-yl}-N-(quinoline-5-sulfonyl)cyclopropane-1-carboxamide], the “Maximum % activity (with co-corrector)” value under setting [5] was “++ (≥150 and <350)”. Further, the EC50 under setting [6] was 3 to 10 µM. For the same compound, under “test compound without co-corrector”, the “EC50 (without co-corrector)” value is “++^a”. Besides, the Emax under setting [7] lay in the range of 50 to 150%.

Take `COc1cc(C2CCC2)cc(OC)c1C1(C(=O)NS(=O)(=O)c2cccc3ccn(C)c23)CC1` [II-66]: the EC50 runs as follows: under setting [1], less than 3 µM; under setting [3], less than 3 µM. Under setting [2], the “Maximum % activity (with co-corrector)” value is reported as “+++ (≥350)”. For the same compound, under setting [4], the Emax is greater than 150%.

In the case of `COc1ccc(C(C)(C)OC)cc1C1(C(=O)NS(=O)(=O)c2cccc3nc(C)ccc23)CC1` [II-99], the EC50 is less than 3 µM under setting [1] and less than 3 µM under setting [3]. The “Maximum % activity (with co-corrector)” value under setting [2] was “+++ (≥350)”. In addition, the Emax under setting [4] is greater than 150%.

With `COc1ccc(C2CC2)cc1C1(C(=O)NS(=O)(=O)c2cccc3ncccc23)CC1` [Example I-13, 1-(5-cyclopropyl-2-methoxyphenyl)-N-(quinoline-5-sulfonyl)cyclopropane-1-carboxamide], the EC50 reads like this: under setting [1], less than 3 µM; under setting [3], less than 3 µM.

As to `Cc1cnc(N2CCOCC2)cc1C1(C(=O)NS(=O)(=O)c2cccc3ncccc23)CC1` [GII-8, 1-[5-methyl-2-(morpholin-4-yl)pyridin-4-yl]-N-(quinoline-5-sulfonyl)cyclopropane-1-carboxamide], the “EC50 (with co-corrector)” value (test compound with co-corrector) is “++^a”. Moreover, the “Maximum % activity (with co-corrector)” value under setting [5] is “++ (≥150 and <350)”. For the same compound, the Emax under setting [7] was less than 50%. For the same compound, the EC50 under setting [8] was greater than 10 µM.

On to `CC(C)Oc1cnc(C2CCC2)cc1C1(C(=O)NS(=O)(=O)c2cccc3ncccc23)CC1` [Example GI-25, 1-{2-cyclobutyl-5-[(propan-2-yl)oxy]pyridin-4-yl}-N-(quinoline-5-sulfonyl)cyclopropane-1-carboxamide], for which the EC50 reads like this: under setting [1], 3 to 10 µM; under setting [3], less than 3 µM. The “Maximum % activity (with co-corrector)” value under setting [2] is “+++ (≥350)”. Besides, the Emax under setting [4] was greater than 150%.

With `CCc1ccncc1C1(C(=O)NS(=O)(=O)c2cccc3c2CCCN3)CC1` [GII-21, 1-(4-ethylpyridin-3-yl)-N-(1,2,3,4-tetrahydroquinoline-5-sulfonyl)cyclopropane-1-carboxamide], the “Maximum % activity (with co-corrector)” value under setting [5] is “++ (≥150 and <350)”. The EC50 was 3 to 10 µM under setting [6] and greater than 10 µM under setting [8]. Also, the Emax under setting [7] was less than 50%.

On to `COc1ccc(OC2CCOC2)cc1C1(C(=O)NS(=O)(=O)c2cccc3ncccc23)CC1` (stereo not shown) [II-23], for which the concentration for a half-maximal effect (EC50) under setting [1] is 3 to 10 µM and the 50% effective concentration (EC50) under setting [3] lay within 3 to 10 µM. In addition, the “Maximum % activity (with co-corrector)” value under setting [2] is listed as “+++ (≥350)”. Besides, the Emax under setting [4] lay in the range of 50 to 150%.

As for `O=C(NS(=O)(=O)c1cccc2c(O)cccc12)C1(c2cccc(Cl)c2)CC1` [Example III-57, 1-(3-chlorophenyl)-N-(5-hydroxynaphthalene-1-sulfonyl)cyclopropane-1-carboxamide], the EC50 reads like this: under setting [1], greater than 10 µM; under setting [3], greater than 10 µM. Also, the “Maximum % activity (with co-corrector)” value under setting [2] is on record as “+ (<150)”. Besides, the Emax under setting [4] was less than 50%.

`COC[C@H](C)Oc1ccc(C)cc1C1(C(=O)NS(=O)(=O)c2cccc3ncccc23)CC1` [II-92]: the EC50 reads like this: under setting [1], less than 3 µM; under setting [3], less than 3 µM. Under setting [2], the “Maximum % activity (with co-corrector)” value was “+++ (≥350)”. For the same compound, the Emax under setting [4] is greater than 150%.

Consider `COc1ncc(Cl)cc1C1(C(=O)NS(=O)(=O)c2cccc3ccccc23)CC1` [Example GI-3, 1-(5-chloro-2-methoxypyridin-3-yl)-N-(naphthalene-1-sulfonyl)cyclopropane-1-carboxamide], for which the concentration giving a half-maximal response (EC50) is, setting by setting: under setting [1], less than 3 µM; under setting [3], less than 3 µM. The “Maximum % activity (with co-corrector)” value under setting [2] is on record as “+++ (≥350)”. The “Maximum % activity (without co-corrector)” value under setting [4] is “+++ (≥150)”.

In the case of `O=C(NS(=O)(=O)c1ccc(OC(F)(F)F)cc1)C1(c2ccc(Cl)cc2Cl)CC1` [Example III-14, 1-(2,4-dichlorophenyl)-N-[4-(trifluoromethoxy)benzene-1-sulfonyl]cyclopropane-1-carboxamide], the EC50 is, setting by setting: under setting [1], greater than 10 µM; under setting [3], greater than 10 µM. Moreover, the “Maximum % activity (with co-corrector)” value under setting [2] was “+ (<150)”. The Emax under setting [4] is less than 50%.

Consider `CC(C)COc1ncc(C2CC2)cc1C1(C(=O)NS(=O)(=O)c2cccc3[nH]ccc23)CC1` [Example GI-50, 1-[5-cyclopropyl-2-(2-methylpropoxy)pyridin-3-yl]-N-(1H-indole-4-sulfonyl)cyclopropane-1-carboxamide], for which the “Maximum % activity (with co-corrector)” value under setting [5] was “+++ (≥350)”. Also, the EC50 runs as follows: under setting [6], less than 3 µM; under setting [8], less than 3 µM. Also, the Emax under setting [7] is greater than 150%.

Regarding `COc1ccc(C2CCC2)cc1C1(C(=O)NS(=O)(=O)c2cccn3nccc23)CC1` [Example I-61, 1-(5-cyclobutyl-2-methoxyphenyl)-N-(pyrazolo[1,5-a]pyridine-4-sulfonyl)cyclopropane-1-carboxamide], the 50% effective concentration (EC50) is, setting by setting: under setting [1], less than 3 µM; under setting [3], less than 3 µM. The “Maximum % activity (with co-corrector)” value under setting [2] is given as “+++ (≥350)”. Also, the Emax under setting [4] was greater than 150%.

As for `COc1cnc(OCC(C)C)c(C2(C(=O)NS(=O)(=O)c3cccc4[nH]ccc34)CC2)c1` [Example GI-78, N-(1H-indole-4-sulfonyl)-1-[5-methoxy-2-(2-methylpropoxy)pyridin-3-yl]cyclopropane-1-carboxamide], the “Maximum % activity (with co-corrector)” value under setting [5] is listed as “+++ (≥350)”. Further, the EC50 under setting [6] was less than 3 µM and the EC50 under setting [8] is less than 3 µM. Further, under setting [7], the Emax was greater than 150%.

Take `CCc1cnc(N2CCC(OC(C)C)CC2)c(C2(C(=O)NS(=O)(=O)c3cccc4[nH]ccc34)CC2)c1` [Example GI-102, 1-(5-ethyl-2-{4-[(propan-2-yl)oxy]piperidin-1-yl}pyridin-3-yl)-N-(1H-indole-4-sulfonyl)cyclopropane-1-carboxamide]: the “Maximum % activity (with co-corrector)” value under setting [5] was “+++ (≥350)”. In addition, the EC50 is, setting by setting: under setting [6], less than 3 µM; under setting [8], 3 to 10 µM. In addition, the Emax under setting [7] is greater than 150%.

As to `CC(C)Oc1ncc(Br)cc1C1(C(=O)NS(=O)(=O)c2cccc3c2CCCN3)CC1` [Example GI-2, 1-{5-bromo-2-[(propan-2-yl)oxy]pyridin-3-yl}-N-(1,2,3,4-tetrahydroquinoline-5-sulfonyl)cyclopropane-1-carboxamide], the EC50 under setting [1] is less than 3 µM and the EC50 under setting [3] is less than 3 µM. Moreover, the “Maximum % activity (with co-corrector)” value under setting [2] is “+++ (≥350)”. Besides, the Emax under setting [4] was greater than 150%.

Regarding `CCOc1cccc(OCC)c1C1(C(=O)NS(=O)(=O)c2cccc3ncccc23)CC1` [Example I-66, 1-(2,6-diethoxyphenyl)-N-(quinoline-5-sulfonyl)cyclopropane-1-carboxamide], the EC50 under setting [1] is less than 3 µM and the 50% effective concentration (EC50) under setting [3] was less than 3 µM. Also, the “Maximum % activity (with co-corrector)” value under setting [2] is “+++ (≥350)”. In addition, under setting [4], the Emax was greater than 150%.

With `COC[C@H](C)Oc1ccc(C)cc1C1(C(=O)NS(=O)(=O)c2cccc3nc(C)ccc23)CC1` [II-104], the EC50 was less than 3 µM under setting [1] and less than 3 µM under setting [3]. Further, the “Maximum % activity (with co-corrector)” value under setting [2] is recorded as “+++ (≥350)”. Also, the Emax under setting [4] is greater than 150%.

As to `O=C(CCc1ccccc1)N1CCC(S(=O)(=O)NC(=O)C2(c3ccc(Cl)cc3Cl)CC2)CC1` [Example III-79, 1-(2,4-dichlorophenyl)-N-[1-(3-phenylpropanoyl)piperidine-4-sulfonyl]cyclopropane-1-carboxamide], the EC50 reads like this: under setting [1], greater than 10 µM; under setting [3], 3 to 10 µM. Further, the “Maximum % activity (with co-corrector)” value under setting [2] is reported as “+ (<150)”. For the same compound, the Emax under setting [4] was less than 50%.

`COc1ccc(C)c(C)c1C1(C(=O)NS(=O)(=O)c2cccc3c2CCCN3)CC1` [II-36]: the EC50 under setting [1] was less than 3 µM and the EC50 under setting [3] was less than 3 µM. In addition, under setting [2], the “Maximum % activity (with co-corrector)” value is reported as “+++ (≥350)”. The Emax under setting [4] was greater than 150%.

On to `Cc1ccc(C2(C(=O)NS(=O)(=O)c3cccc4nc(C)ccc34)CC2)c(OC(C)C)n1` [Example GI-81, 1-{6-methyl-2-[(propan-2-yl)oxy]pyridin-3-yl}-N-(2-methylquinoline-5-sulfonyl)cyclopropane-1-carboxamide], for which, under setting [5], the “Maximum % activity (with co-corrector)” value was “+++ (≥350)”. Besides, the EC50 is less than 3 µM under setting [6] and less than 3 µM under setting [8]. Moreover, the Emax under setting [7] was greater than 150%.

The record behind these values is patent US10829473B2, “Modulators of the cystic fibrosis transmembrane conductance regulator protein and methods of use” (AbbVie Overseas S.Á.R.L., priority 2017, dated 2020).
